Results: PubChem BioAssay (NCI)
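Values below derive from 48-hour exposures of cells grown in 96-well plates, with endpoints linearly interpolated between the two concentrations bracketing the appropriate inhibition level. Abbreviation: GI50, concentration required for 50% inhibition of growth. At the TGI there is no net growth.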

Tests used:
Experiment in all cases: NCI-60 cell line screen, 48 h
[1] = system: CCRF-CEM leukemia
[2] = system: KM12 colon
[3] = system: MALME-3M melanoma
[4] = system: NCI-H522 lung
[5] = system: OVCAR-3 ovarian
[6] = system: SF-268 CNS
[7] = system: SK-MEL-28 melanoma
[8] = system: T-47D breast
[9] = system: DMS 273 small cell lung
[10] = system: HOP-18 NSCLC

Structure (SMILES)	GI50 [1]	TGI [1]	GI50 [2]	TGI [2]	GI50 [3]	TGI [3]	GI50 [4]	TGI [4]	GI50 [5]	TGI [5]	GI50 [6]	TGI [6]	GI50 [7]	TGI [7]	GI50 [8]	TGI [8]	TGI [9]	TGI [10]
Fc1cc(-c2nnc3n2N=C(c2ccc(Cl)cc2Cl)CS3)c(Cl)cc1Cl	27.6 µM	> 100 µM	41.9 µM	> 100 µM	26.6 µM	94.4 µM	50.8 µM	> 100 µM	22.8 µM	88.1 µM	36.6 µM	> 100 µM	40.2 µM	> 100 µM	11.7 µM	48.5 µM		
C=CC(=O)Nc1cccc(Nc2nc(Nc3ccc(OCCOC(F)F)cc3)ncc2F)c1	5.17 µM	94 µM	3.57 µM	17.2 µM	2.49 µM	35.1 µM	1.88 µM	7.44 µM	2.32 µM	14.1 µM	2.25 µM	17.6 µM	7.36 µM	> 100 µM	1.83 µM	9.98 µM		
COc1ccc(C(=O)C[C@]2(O)C(=O)Nc3c(Cl)ccc(Cl)c32)cc1	0.563 µM	> 100 µM	0.39 µM	> 40.1 µM	0.503 µM	> 100 µM	0.317 µM		0.348 µM	7.19 µM	1.33 µM	> 77.8 µM	6.54 µM	> 100 µM	0.498 µM	> 100 µM		
CCCCCCCCCCCCCCCCS(=O)(=O)c1ccc(NN)cc1		4.34 µM		> 10 µM		> 10 µM		> 10 µM		> 10 µM		> 10 µM		> 10 µM		> 10 µM		
O=c1[nH]c2cc(Cl)c(Cl)cc2n2cc3ccccc3c12	22.1 µM	48.9 µM	17.3 µM	31.1 µM	17.1 µM	32.7 µM	10.2 µM	31 µM	18.4 µM	32.4 µM	23.7 µM	42.6 µM	33 µM	> 100 µM	30.8 µM	75.5 µM		
COc1cc2cc(Oc3ccc(NC(=O)c4cccc5c4OCCO5)cc3)c(C)nc2cc1OC	4.18 µM	> 100 µM	4.39 µM	> 100 µM	8.76 µM	> 100 µM	4.28 µM	45.1 µM	17.1 µM	> 100 µM	14.4 µM	> 100 µM	19.2 µM	> 100 µM	2.82 µM	15.4 µM		
CC[P+]1(CC)CCCC1		> 100 µM		> 100 µM		> 100 µM				> 100 µM		> 100 µM		> 100 µM			> 100 µM	> 100 µM
C1=C2CNCC3=Cc4ccc5ccccc5c4OC23Oc2c1ccc1ccccc21	3.65 µM	> 100 µM	3.83 µM	16.3 µM	12.5 µM	38.5 µM	3.01 µM	13.1 µM	2.34 µM	5.5 µM	5.64 µM	22.1 µM	7.38 µM		8.28 µM	23.2 µM		
